# Measured values reported in ChEMBL document CHEMBL3885881, “DrugMatrix”.
# Where “and” joins values, the source holds several entries; their conditions need not be identical. Equal entries are not always repeated.
# Species: Rattus norvegicus
# Test: DrugMatrix - Regimen: Daily Repeat
# Type: toxicity, organism-based, Sprague-Dawley
# Design: regimen Daily Repeat, gender Male, age 6-8 weeks
# Details: in vivo, po, route oral GAVAGE, vehicle 100 % WATER; for ABSOLUTE SEGMENTED NEUTROPHIL / BASOPHIL / EOSINOPHIL / ERYTHROCYTE COUNT / HEMATOCRIT / HEMOGLOBIN / LEUKOCYTE COUNT / LYMPHOCYTE / MEAN CORPUSCULAR HEMOGLOBIN / MEAN CORPUSCULAR HEMOGLOBIN CONCENTRATION / MEAN CORPUSCULAR VOLUME / MONOCYTE / NEUTROPHIL / NUCLEATED RED BLOOD CELLS / PLATELET COUNT / ABSOLUTE BASOPHIL / ABSOLUTE EOSINOPHIL / ABSOLUTE LYMPHOCYTE / ABSOLUTE MONOCYTE: tissue Blood; for ALANINE AMINOTRANSFERASE / ALBUMIN / ALKALINE PHOSPHATASE / ASPARTATE AMINOTRANSFERASE / BLOOD UREA NITROGEN / CARBON DIOXIDE / CHLORIDE / CHOLESTEROL / CREATINE PHOSPHOKINASE / CREATININE / GLUCOSE / LACTATE DEHYDROGENASE / LIPASE / PHOSPHORUS / POTASSIUM / SODIUM / TOTAL BILIRUBIN / TOTAL PROTEIN / URIC ACID: tissue Plasma
# [1] = 0 mg/kg, 72 h, dose level Control, time 3 day
# [2] = 0 mg/kg, 120 h, dose level Control, time 5 day
# [3] = 0 mg/kg, […], dose level Control, time 14 day
# [4] = 120 mg/kg, 72 h, dose level High, time 3 day
# [5] = 120 mg/kg, 120 h, dose level High, time 5 day
smiles,measurement,setting,value
COCCc1ccc(OCC(O)CNC(C)C)cc1 (centres undefined) [METOPROLOL],ABSOLUTE SEGMENTED NEUTROPHIL,[1],1139.67 CELLS/uL
same,BASOPHIL,[1],1.07% and 0%
same,EOSINOPHIL,[1],1.03% and 0.83%
same,ERYTHROCYTE COUNT,[1],5.88 x10E6/uL and 5.54 x10E6/uL
same,HEMATOCRIT,[1],38.37% and 35.35%
same,HEMOGLOBIN,[1],12.5 G/DL and 13.22 G/DL
same,LEUKOCYTE COUNT,[1],11.61 x10E3/uL and 12 x10E3/uL
same,LYMPHOCYTE,[1],74.4% and 89%
same,MEAN CORPUSCULAR HEMOGLOBIN,[1],21.23 pg and 23.88 pg
same,MEAN CORPUSCULAR HEMOGLOBIN CONCENTRATION,[1],32.5 G/DL and 37.4 G/DL
same,MEAN CORPUSCULAR VOLUME,[1],65.47 fL and 63.85 fL
same,MONOCYTE,[1],2.73% and 1%
same,NEUTROPHIL,[1],20.17% and 9.17%
same,NUCLEATED RED BLOOD CELLS,[1],0 /100WBC
same,PLATELET COUNT,[1],1067 x10E3/uL and 1333.33 x10E3/uL
same,ALANINE AMINOTRANSFERASE,[1],35.33 u/L and 53.17 u/L
same,ALBUMIN,[1],3.83 G/DL and 4.32 G/DL
same,ALKALINE PHOSPHATASE,[1],469.67 u/L and 404.33 u/L
same,ASPARTATE AMINOTRANSFERASE,[1],65.33 u/L and 83.17 u/L
same,BLOOD UREA NITROGEN,[1],16.33 mg/dL and 15.67 mg/dL
same,CARBON DIOXIDE,[1],44.67 mmol/L and 27.33 mmol/L
same,CHLORIDE,[1],102 MEQ/L and 101.83 MEQ/L
same,CHOLESTEROL,[1],71.33 mg/dL and 68.67 mg/dL
same,CREATINE PHOSPHOKINASE,[1],256.67 u/L and 276.17 u/L
same,CREATININE,[1],0.4 mg/dL and 0.18 mg/dL
same,GLUCOSE,[1],165 mg/dL and 163.5 mg/dL
same,LACTATE DEHYDROGENASE,[1],114.33 u/L and 144.67 u/L
same,LIPASE,[1],16 u/L and 8.83 u/L
same,PHOSPHORUS,[1],10.7 mg/dL and 11.72 mg/dL
same,POTASSIUM,[1],6.87 MEQ/L and 5.99 MEQ/L
same,SODIUM,[1],143 MEQ/L and 143.57 MEQ/L
same,TOTAL BILIRUBIN,[1],0.4 mg/dL and 0.2 mg/dL
same,TOTAL PROTEIN,[1],6.37 G/DL and 6.1 G/DL
same,URIC ACID,[1],0.87 mg/dL and 1.38 mg/dL
same,ABSOLUTE SEGMENTED NEUTROPHIL,[2],1137.17 CELLS/uL
same,BASOPHIL,[2],0.57% and 0%
same,EOSINOPHIL,[2],1.33% and 1.67%
same,ERYTHROCYTE COUNT,[2],6.38 x10E6/uL and 5.82 x10E6/uL
same,HEMATOCRIT,[2],42.13% and 36.35%
same,HEMOGLOBIN,[2],13.6 G/DL and 13.58 G/DL
same,LEUKOCYTE COUNT,[2],13.38 x10E3/uL and 14.38 x10E3/uL
same,LYMPHOCYTE,[2],81.03% and 90.5%
same,MEAN CORPUSCULAR HEMOGLOBIN,[2],21.27 pg and 23.32 pg
same,MEAN CORPUSCULAR HEMOGLOBIN CONCENTRATION,[2],32.27 G/DL and 37.42 G/DL
same,MEAN CORPUSCULAR VOLUME,[2],66 fL and 62.42 fL
same,MONOCYTE,[2],2% and 0.17%
same,NEUTROPHIL,[2],14.33% and 7.67%
same,NUCLEATED RED BLOOD CELLS,[2],0 /100WBC
same,PLATELET COUNT,[2],1279.33 x10E3/uL and 1337.67 x10E3/uL
same,ALANINE AMINOTRANSFERASE,[2],29 u/L and 48.5 u/L
same,ALBUMIN,[2],3.8 G/DL and 4.32 G/DL
same,ALKALINE PHOSPHATASE,[2],440.33 u/L and 354.33 u/L
same,ASPARTATE AMINOTRANSFERASE,[2],61.33 u/L and 80 u/L
same,BLOOD UREA NITROGEN,[2],15.67 mg/dL and 16 mg/dL
same,CARBON DIOXIDE,[2],44.67 mmol/L and 27.33 mmol/L
same,CHLORIDE,[2],102 MEQ/L and 100.33 MEQ/L
same,CHOLESTEROL,[2],59.67 mg/dL and 68 mg/dL
same,CREATINE PHOSPHOKINASE,[2],184.33 u/L and 325.17 u/L
same,CREATININE,[2],0.3 mg/dL and 0.23 mg/dL
same,GLUCOSE,[2],180 mg/dL and 172 mg/dL
same,LACTATE DEHYDROGENASE,[2],88.33 u/L and 254.83 u/L
same,LIPASE,[2],8 u/L and 8.33 u/L
same,PHOSPHORUS,[2],10.73 mg/dL and 12.17 mg/dL
same,POTASSIUM,[2],6.5 MEQ/L and 6.28 MEQ/L
same,SODIUM,[2],145.67 MEQ/L and 143.57 MEQ/L
same,TOTAL BILIRUBIN,[2],0.3 mg/dL and 0.18 mg/dL
same,TOTAL PROTEIN,[2],6.3 G/DL and 6.12 G/DL
same,URIC ACID,[2],0.8 mg/dL and 1.78 mg/dL
same,ABSOLUTE BASOPHIL,[3],130 cells/µL
same,ABSOLUTE EOSINOPHIL,[3],60 cells/µL
same,ABSOLUTE LYMPHOCYTE,[3],9510 cells/µL
same,ABSOLUTE MONOCYTE,[3],270 cells/µL
same,BASOPHIL,[3],0.93%
same,EOSINOPHIL,[3],0.5%
same,ERYTHROCYTE COUNT,[3],7.2 x10E6/uL
same,HEMATOCRIT,[3],43.27%
same,HEMOGLOBIN,[3],14.73 G/DL
same,LEUKOCYTE COUNT,[3],12.58 x10E3/uL
same,LYMPHOCYTE,[3],75.5%
same,MEAN CORPUSCULAR HEMOGLOBIN,[3],20.5 pg
same,MEAN CORPUSCULAR HEMOGLOBIN CONCENTRATION,[3],34.07 G/DL
same,MEAN CORPUSCULAR VOLUME,[3],60.1 fL
same,MONOCYTE,[3],1.33%
same,NEUTROPHIL,[3],20.5%
same,PLATELET COUNT,[3],1162 x10E3/uL
same,ALANINE AMINOTRANSFERASE,[3],25.33 u/L
same,ALBUMIN,[3],3.87 G/DL
same,ALKALINE PHOSPHATASE,[3],321.67 u/L
same,ASPARTATE AMINOTRANSFERASE,[3],60.33 u/L
same,BLOOD UREA NITROGEN,[3],13.33 mg/dL
same,CARBON DIOXIDE,[3],45 mmol/L
same,CHLORIDE,[3],104.67 MEQ/L
same,CHOLESTEROL,[3],72.33 mg/dL
same,CREATINE PHOSPHOKINASE,[3],213.33 u/L
same,CREATININE,[3],0.3 mg/dL
same,GLUCOSE,[3],164 mg/dL
same,LACTATE DEHYDROGENASE,[3],84.33 u/L
same,LIPASE,[3],18.33 u/L
same,PHOSPHORUS,[3],10.23 mg/dL
same,POTASSIUM,[3],6.17 MEQ/L
same,SODIUM,[3],144 MEQ/L
same,TOTAL BILIRUBIN,[3],0.37 mg/dL
same,TOTAL PROTEIN,[3],6.43 G/DL
same,URIC ACID,[3],0.0667 mg/dL
same,ABSOLUTE BASOPHIL,[4],76.7 cells/µL
same,ABSOLUTE EOSINOPHIL,[4],230 cells/µL
same,ABSOLUTE LYMPHOCYTE,[4],5150 cells/µL
same,ABSOLUTE MONOCYTE,[4],220 cells/µL
same,BASOPHIL,[4],1.03%
same,EOSINOPHIL,[4],3.13%
same,ERYTHROCYTE COUNT,[4],6.58 x10E6/uL
same,HEMATOCRIT,[4],42.5%
same,HEMOGLOBIN,[4],14.4 G/DL
same,LEUKOCYTE COUNT,[4],7.41 x10E3/uL
same,LYMPHOCYTE,[4],69.3%
same,MEAN CORPUSCULAR HEMOGLOBIN,[4],21.87 pg
same,MEAN CORPUSCULAR HEMOGLOBIN CONCENTRATION,[4],33.8 G/DL
same,MEAN CORPUSCULAR VOLUME,[4],64.63 fL
same,MONOCYTE,[4],2.97%
same,NEUTROPHIL,[4],23.23%
same,PLATELET COUNT,[4],1007 x10E3/uL
same,ALANINE AMINOTRANSFERASE,[4],35 u/L
same,ALBUMIN,[4],3.7 G/DL
same,ALKALINE PHOSPHATASE,[4],368.67 u/L
same,ASPARTATE AMINOTRANSFERASE,[4],69.33 u/L
same,BLOOD UREA NITROGEN,[4],16.67 mg/dL
same,CARBON DIOXIDE,[4],34.67 mmol/L
same,CHLORIDE,[4],104 MEQ/L
same,CHOLESTEROL,[4],74.33 mg/dL
same,CREATINE PHOSPHOKINASE,[4],338.33 u/L
same,CREATININE,[4],0.47 mg/dL
same,GLUCOSE,[4],161.33 mg/dL
same,LACTATE DEHYDROGENASE,[4],274.33 u/L
same,LIPASE,[4],13 u/L
same,PHOSPHORUS,[4],11.6 mg/dL
same,POTASSIUM,[4],6.57 MEQ/L
same,SODIUM,[4],142.67 MEQ/L
same,TOTAL BILIRUBIN,[4],0.37 mg/dL
same,TOTAL PROTEIN,[4],6.03 G/DL
same,URIC ACID,[4],0.97 mg/dL
same,ABSOLUTE BASOPHIL,[5],66.7 cells/µL
same,ABSOLUTE EOSINOPHIL,[5],380 cells/µL
same,ABSOLUTE LYMPHOCYTE,[5],7010 cells/µL
same,ABSOLUTE MONOCYTE,[5],250 cells/µL
